Assay results reported in ChEMBL document CHEMBL3046000, “Design and synthesis of 1-(benzothiazol-5-yl)-1H-1,2,4-triazol-5-ones as protoporphyrinogen oxidase inhibitors” (Bioorg Med Chem, 2013).

Tests used:
Brassica juncea [1] = test: Post-emergence herbicidal activity against Brassica juncea seedlings assessed as plant growth inhibition at 37.5 g ai/ha measured 15 days after compound treatment under greenhouse conditions; assay type: functional; conditions: 360 h, read-out: GI
Amaranthus retroflexus [2] = test: Post emergence herbicidal activity against Amaranthus retroflexus seedlings assessed as plant growth inhibition at 37.5 g ai/ha measured 15 days after compound treatment under greenhouse conditions; assay type: functional; conditions: 360 h, read-out: GI
Digitaria sanguinalis [3] = test: Post-emergence herbicidal activity against Digitaria sanguinalis (hairy crabgrass) seedlings assessed as plant growth inhibition at 37.5 g ai/ha measured 15 days after compound treatment under greenhouse conditions; assay type: functional; conditions: 360 h, read-out: GI
Amaranthus retroflexus [4] = test: Post emergence herbicidal activity against Amaranthus retroflexus seedlings assessed as plant growth inhibition at 150 g ai/ha measured 15 days after compound treatment under greenhouse conditions; assay type: functional; conditions: 360 h, read-out: GI
Setaria faberi [5] = test: Post-emergence herbicidal activity against Setaria faberi (Giant Foxtail) seedlings assessed as plant growth inhibition at 150 g ai/ha measured 15 days after compound treatment under greenhouse conditions; assay type: functional; conditions: 360 h, read-out: GI
[6] = target: T1, Protoporphyrinogen oxidase, chloroplastic (Nicotiana tabacum, UniProt O24163); test: Inhibition of Nicotiana tabacum (tobacco) recombinant PPO assessed as protoporphyrin IX formation at room temperature by fluorimetric assay
T1 sequence (O24163 whole entry): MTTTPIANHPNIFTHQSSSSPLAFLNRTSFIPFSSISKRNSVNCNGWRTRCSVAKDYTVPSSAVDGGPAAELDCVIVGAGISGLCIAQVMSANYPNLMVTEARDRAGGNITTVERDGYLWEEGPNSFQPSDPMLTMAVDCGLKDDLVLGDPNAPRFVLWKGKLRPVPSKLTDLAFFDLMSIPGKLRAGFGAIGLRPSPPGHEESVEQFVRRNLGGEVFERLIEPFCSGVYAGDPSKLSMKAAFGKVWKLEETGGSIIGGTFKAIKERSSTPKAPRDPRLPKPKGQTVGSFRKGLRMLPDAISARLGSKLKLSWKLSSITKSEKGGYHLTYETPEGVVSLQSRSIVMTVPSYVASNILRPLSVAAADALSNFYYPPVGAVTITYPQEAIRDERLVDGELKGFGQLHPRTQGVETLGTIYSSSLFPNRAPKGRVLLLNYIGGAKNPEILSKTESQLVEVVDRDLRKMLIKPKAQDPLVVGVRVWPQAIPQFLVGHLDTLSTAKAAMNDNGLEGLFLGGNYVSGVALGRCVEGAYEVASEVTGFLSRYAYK

Brassica juncea [7] = test: Post-emergence herbicidal activity against Brassica juncea seedlings assessed as plant growth inhibition at 75 g ai/ha measured 15 days after compound treatment under greenhouse conditions; assay type: functional; conditions: 360 h, read-out: GI
Amaranthus retroflexus [8] = test: Post emergence herbicidal activity against Amaranthus retroflexus seedlings assessed as plant growth inhibition at 75 g ai/ha measured 15 days after compound treatment under greenhouse conditions; assay type: functional; conditions: 360 h, read-out: GI
Echinochloa crus-galli [9] = test: Post emergence herbicidal activity against Echinochloa crus-galli (barnyard grass) seedlings assessed as plant growth inhibition at 75 g ai/ha measured 15 days after compound treatment under greenhouse conditions; assay type: functional; conditions: 360 h, read-out: GI
Echinochloa crus-galli [10] = test: Post emergence herbicidal activity against Echinochloa crus-galli (barnyard grass) seedlings assessed as plant growth inhibition at 150 g ai/ha measured 15 days after compound treatment under greenhouse conditions; assay type: functional; conditions: 360 h, read-out: GI
Chenopodium album [11] = test: Post-emergence herbicidal activity against Chenopodium album seedlings assessed as plant growth inhibition at 150 g ai/ha measured 15 days after compound treatment under greenhouse conditions; assay type: functional; conditions: 360 h, read-out: GI
Chenopodium album [12] = test: Post-emergence herbicidal activity against Chenopodium album seedlings assessed as plant growth inhibition at 37.5 g ai/ha measured 15 days after compound treatment under greenhouse conditions; assay type: functional; conditions: 360 h, read-out: GI
Chenopodium album [13] = test: Post-emergence herbicidal activity against Chenopodium album seedlings assessed as plant growth inhibition at 75 g ai/ha measured 15 days after compound treatment under greenhouse conditions; assay type: functional; conditions: 360 h, read-out: GI
Setaria faberi [14] = test: Post-emergence herbicidal activity against Setaria faberi (Giant Foxtail) seedlings assessed as plant growth inhibition at 37.5 g ai/ha measured 15 days after compound treatment under greenhouse conditions; assay type: functional; conditions: 360 h, read-out: GI
Echinochloa crus-galli [15] = test: Post emergence herbicidal activity against Echinochloa crus-galli (barnyard grass) seedlings assessed as plant growth inhibition at 37.5 g ai/ha measured 15 days after compound treatment under greenhouse conditions; assay type: functional; conditions: 360 h, read-out: GI
Setaria faberi [16] = test: Post-emergence herbicidal activity against Setaria faberi (Giant Foxtail) seedlings assessed as plant growth inhibition at 75 g ai/ha measured 15 days after compound treatment under greenhouse conditions; assay type: functional; conditions: 360 h, read-out: GI
Digitaria sanguinalis [17] = test: Post-emergence herbicidal activity against Digitaria sanguinalis (hairy crabgrass) seedlings assessed as plant growth inhibition at 150 g ai/ha measured 15 days after compound treatment under greenhouse conditions; assay type: functional; conditions: 360 h, read-out: GI
Digitaria sanguinalis [18] = test: Post-emergence herbicidal activity against Digitaria sanguinalis (hairy crabgrass) seedlings assessed as plant growth inhibition at 75 g ai/ha measured 15 days after compound treatment under greenhouse conditions; assay type: functional; conditions: 360 h, read-out: GI
Brassica juncea [19] = test: Post-emergence herbicidal activity against Brassica juncea seedlings assessed as plant growth inhibition at 150 g ai/ha measured 15 days after compound treatment under greenhouse conditions; assay type: functional; conditions: 360 h, read-out: GI

Row | SMILES | Ki [6] | inhibition of growth at 37.5 g/ha (Brassica juncea [1]) | inhibition of growth at 37.5 g/ha (Amaranthus retroflexus [2]) | inhibition of growth at 37.5 g/ha (Digitaria sanguinalis [3]) | inhibition of growth at 150 g/ha (Amaranthus retroflexus [4]) | inhibition of growth at 150 g/ha (Setaria faberi [5]) | inhibition of growth at 75 g/ha (Brassica juncea [7]) | inhibition of growth at 75 g/ha (Amaranthus retroflexus [8]) | inhibition of growth at 75 g/ha (Echinochloa crus-galli [9]) | inhibition of growth at 150 g/ha (Echinochloa crus-galli [10]) | inhibition of growth at 150 g/ha (Chenopodium album [11]) | inhibition of growth at 37.5 g/ha (Chenopodium album [12]) | inhibition of growth at 75 g/ha (Chenopodium album [13]) | inhibition of growth at 37.5 g/ha (Setaria faberi [14]) | inhibition of growth at 37.5 g/ha (Echinochloa crus-galli [15]) | inhibition of growth at 75 g/ha (Setaria faberi [16]) | inhibition of growth at 150 g/ha (Digitaria sanguinalis [17]) | inhibition of growth at 75 g/ha (Digitaria sanguinalis [18]) | inhibition of growth at 150 g/ha (Brassica juncea [19])
1 | Cc1nn(-c2cc3nc(SC(C)C(=O)O)sc3cc2Cl)c(=O)n1C(F)F (configuration not stated) | 6.73 µM | < 50% | < 50% | < 50% | ≥ 90% | ≥ 90% | 80% | 60% | < 50% | ≥ 90% | ≥ 90% | 60% | ≥ 90% | < 50% | < 50% | < 50% | ≥ 90% | < 50% | ≥ 90%
2 | Cc1nn(-c2cc3nc(SCCC(=O)O)sc3cc2F)c(=O)n1C(F)F | 1.67 µM | 60% | 60% | < 50% | ≥ 90% | < 50% | ≥ 90% | ≥ 90% | < 50% | 50% | ≥ 90% | 80% | ≥ 90% | < 50% | < 50% | 50% | 50% | 50% | ≥ 90%
3 | COC(=O)Sc1nc2cc(-n3nc(C)n(C(F)F)c3=O)c(F)cc2s1 | 0.29 µM | < 50% | < 50% | 60% | ≥ 90% | < 50% | 50% | 50% | 50% | 60% | ≥ 90% | 50% | ≥ 90% | < 50% | 50% | < 50% | 60% | 60% | ≥ 90%

Continued by falling Ki [6], values first:

Row | Ki [6] | SMILES | inhibition of growth at 37.5 g/ha (Brassica juncea [1]) | inhibition of growth at 37.5 g/ha (Amaranthus retroflexus [2]) | inhibition of growth at 37.5 g/ha (Digitaria sanguinalis [3]) | inhibition of growth at 150 g/ha (Amaranthus retroflexus [4]) | inhibition of growth at 150 g/ha (Setaria faberi [5]) | inhibition of growth at 75 g/ha (Brassica juncea [7]) | inhibition of growth at 75 g/ha (Amaranthus retroflexus [8]) | inhibition of growth at 75 g/ha (Echinochloa crus-galli [9]) | inhibition of growth at 150 g/ha (Echinochloa crus-galli [10]) | inhibition of growth at 150 g/ha (Chenopodium album [11]) | inhibition of growth at 37.5 g/ha (Chenopodium album [12]) | inhibition of growth at 75 g/ha (Chenopodium album [13]) | inhibition of growth at 37.5 g/ha (Setaria faberi [14]) | inhibition of growth at 37.5 g/ha (Echinochloa crus-galli [15]) | inhibition of growth at 75 g/ha (Setaria faberi [16]) | inhibition of growth at 150 g/ha (Digitaria sanguinalis [17]) | inhibition of growth at 75 g/ha (Digitaria sanguinalis [18]) | inhibition of growth at 150 g/ha (Brassica juncea [19])
4 | 17.8 µM | Cc1nn(-c2cc3nc(SCCC(=O)O)sc3cc2Cl)c(=O)n1C(F)F | 50% | < 50% | < 50% | ≥ 90% | < 50% | 60% | < 50% | 50% | < 50% | ≥ 90% | < 50% | < 50% | 60% | 50% | 60% | < 50% | < 50% | ≥ 90%
5 | 15.2 µM | COC(=O)CSc1nc2cc(-n3nc(C)n(C(F)F)c3=O)c(Cl)cc2s1 | 60% | 60% | < 50% | ≥ 90% | ≥ 90% | 80% | ≥ 90% | 50% | ≥ 90% | 60% | ≥ 90% | ≥ 90% | 50% | 50% | 50% | ≥ 90% | < 50% | ≥ 90%
6 | 10.3 µM | Cc1nn(-c2cc3nc(SCC(=O)O)sc3cc2Cl)c(=O)n1C(F)F | 60% | 50% | < 50% | ≥ 90% | ≥ 90% | ≥ 90% | ≥ 90% | < 50% | ≥ 90% | ≥ 90% | 80% | ≥ 90% | < 50% | < 50% | < 50% | ≥ 90% | < 50% | ≥ 90%
7 | 1.21 µM | Cc1nn(-c2cc3nc(SC(C)C(=O)O)sc3cc2F)c(=O)n1C(F)F (configuration not stated) | ≥ 90% | ≥ 90% | < 50% | ≥ 90% | ≥ 90% | ≥ 90% | ≥ 90% | 60% | ≥ 90% | ≥ 90% | 50% | ≥ 90% | 60% | 60% | 60% | ≥ 90% | < 50% | ≥ 90%
8 | 1.08 µM | COC(=O)CSc1nc2cc(-n3nc(C)n(C(F)F)c3=O)c(F)cc2s1 | 60% | ≥ 90% | < 50% | ≥ 90% | ≥ 90% | ≥ 90% | ≥ 90% | 60% | ≥ 90% | ≥ 90% | < 50% | ≥ 90% | 60% | 60% | 60% | ≥ 90% | < 50% | ≥ 90%
